According to ChEMBL document CHEMBL5230081, “Battle against Vancomycin-Resistant Bacteria: Recent Developments in Chemical Strategies” (J Med Chem, 2019):
Converted amounts (≈) assume the structure as drawn.

Legend:
Enterococcus faecium [1] = assay: Antimicrobial activity against Vancomycin-resistant (Van A) Enterococcus faecium ATCC 51559 assessed as reduction in microbial growth; format: functional
Enterococcus faecium [2] = assay: Antibacterial activity against Vancomycin-resistant Enterococcus faecium assessed as colony forming unit at 20 times MIC concentration measured after 21 days by time kill assay; format: functional; conditions: time 21 day
Staphylococcus aureus [3] = assay: Antibacterial activity against Vancomycin-intermediate Staphylococcus aureus NRS1 assessed as bacterial growth inhibition; format: functional
Staphylococcus aureus [4] = assay: Antimicrobial activity against Vancomycin-resistant Staphylococcus aureus incubated for 20 hrs by broth dilution method; format: functional
Staphylococcus aureus [5] = assay: Antimicrobial activity against vancomycin-resistant Staphylococcus aureus assessed as microbial growth reduction; format: functional
[6] = Binding affinity to D-Ala-D-Lac assessed as dissociation constant
[7] = Binding affinity to D-Ala-D-Ala assessed as dissociation constant
Enterococcus faecium [8] = assay: Antimicrobial activity against Vancomycin-resistant (Van S) Enterococcus faecium ATCC 51559 assessed as reduction in microbial growth; format: functional
[9] = Enterococcus faecium, ATCC 51559, read-out: MIC

SMILES	MIC (Enterococcus faecium [1]) [µM]	MIC (Enterococcus faecium [1]; [9])	Activity (Enterococcus faecium [2]) [log10/ml]	MIC (Staphylococcus aureus [3])	MIC (Staphylococcus aureus [4])	MIC (Staphylococcus aureus [5]) [µg/mL]	Kd [6] [µM]	Kd [7] [µM]	MIC (Enterococcus faecium [8]) [µg/mL]
CN[C@H](CC(C)C)C(=O)N[C@H]1C(=O)N[C@@H](CC(N)=O)C(=O)N[C@H]2C(=O)N[C@H]3C(=O)N[C@H](C(=O)N[C@H](C(=O)NCCCCCCN(Cc4ccccn4)Cc4ccccn4)c4cc(O)cc(O)c4-c4cc3ccc4O)[C@H](O)c3ccc(c(Cl)c3)Oc3cc2cc(c3O[C@@H]2O[C@H](CO)[C@@H](O)[C@H](O)[C@H]2O[C@H]2C[C@](C)(N)[C@H](O)[C@H](C)O2)Oc2ccc(cc2Cl)[C@H]1O	1.5	2 µM	5	1 µM	–	–	–	–	–
CCCCCCCCCCC(=O)N[C@@H](CCCCN)C(=O)N[C@@H](CCCCN)C(=O)NC(CCCCNC(=O)[C@H]1NC(=O)[C@H]2NC(=O)[C@H](NC(=O)[C@@H]3NC(=O)[C@H](CC(N)=O)NC(=O)[C@H](NC(=O)[C@@H](CC(C)C)NC)[C@H](O)c4ccc(c(Cl)c4)Oc4cc3cc(c4O[C@@H]3O[C@H](CO)[C@@H](O)[C@H](O)[C@H]3O[C@H]3C[C@](C)(N)[C@H](O)[C@H](C)O3)Oc3ccc(cc3Cl)[C@H]2O)c2ccc(O)c(c2)-c2c(O)cc(O)cc21)C(=O)O (stereo partly drawn)	–	6 µg/mL	–	0.5 µg/mL	1 µg/mL	0.05 (≈ 0.025 µM)	–	–	–
CN[C@H](CC(C)C)C(=O)N[C@H]1C(=O)N[C@@H](CC(N)=O)C(=O)N[C@H]2C(=O)N[C@H]3C(=O)N[C@H](C(=O)N[C@H](C(=O)NCCSSCCNC(=O)[C@H]4NC(=O)[C@H]5NC(=O)[C@H](NC(=O)[C@@H]6NC(=O)[C@H](CC(N)=O)NC(=O)[C@H](NC(=O)[C@@H](CC(C)C)NC)[C@H](O)c7ccc(c(Cl)c7)Oc7cc6cc(c7O[C@@H]6O[C@H](CO)[C@@H](O)[C@H](O)[C@H]6O[C@H]6C[C@](C)(N)[C@H](O)[C@H](C)O6)Oc6ccc(cc6Cl)[C@H]5O)c5ccc(O)c(c5)-c5c(O)cc(O)cc54)c4cc(O)cc(O)c4-c4cc3ccc4O)[C@H](O)c3ccc(c(Cl)c3)Oc3cc2cc(c3O[C@@H]2O[C@H](CO)[C@@H](O)[C@H](O)[C@H]2O[C@H]2C[C@](C)(N)[C@H](O)[C@H](C)O2)Oc2ccc(cc2Cl)[C@H]1O	–	11 µM	–	–	11 µM	–	440	1.9	–
CCCCCCCCCC(=O)O[C@@H]1c2ccc(c(Cl)c2)Oc2cc3cc(c2O[C@@H]2O[C@H](CO)[C@@H](O)[C@H](O)[C@H]2O[C@H]2C[C@](C)(N)[C@H](O)[C@H](C)O2)Oc2ccc(cc2Cl)[C@@H](O)[C@@H](NC(=O)[C@@H](CC(C)C)NC)C(=O)N[C@@H](CC(N)=O)C(=O)N[C@H]3C(=O)N[C@H]2C(=O)N[C@@H]1C(=O)N[C@H](C(=O)O)c1ccccc1-c1cccc2c1	–	–	–	–	–	–	–	–	0.25
